Measurements from patent US20230114865A1, “PHENYL PYRROLE AMINOGUANIDINE SALTS AND FORMULATIONS” (SYNACT PHARMA APS, priority 2021, published 2023).
Like-named read-outs stand apart in the source and are kept apart here. Marks after values point to notes of the source that are not given here. Values belong to the compound of their own block, whether it stands above or below them.

What was measured:
[1] = Solubility of additional AP1189 salts, HCl/KCl buffer 0.5 M pH 1.2; type: physicochemical
MC3R = details: cited from earlier work
melanocytes = details: cited from earlier work
[2] = Chemical stability of AP1189 suspension in Syrspend SF Alka, HPLC; type: physicochemical; details: room temp.; for Total Impurities (% Area) Initial / Total Impurities (% Area) T = 30 min / Total Impurities (% Area) T = 60 min / Total Impurities (% Area) T = 90 min: Syrspend SF Alka
Procedure: An experiment was conducted at lowest (15 mg) and highest (400 mg) dose strength to assess the dispersability and physical stability of the suspension. Chemical stability of the suspension was assessed by HPLC for 90 minutes at every 30 minutes interval.

MC1R = details: cited from earlier work
peritonitis = details: in vivo; cited from earlier work
[3] = Stability of AP1189 in Ora-Sweet and Ora-Sweet SF, HPLC; type: physicochemical; details: 20 mg/ml suspension, pH 4.25, T=0
Procedure: Stability of AP1189 in Ora-Sweet and Ora-Sweet SF was tested.

[4] = system: experimental inflammatory arthritis; details: in vivo; cited from earlier work
primary macrophages = details: cited from earlier work
[5] = Forced degradation studies on AP1189 at low pH; type: physicochemical; details: within 24 hours
[6] = buffer pH 1.2, fully dissolved, succinate 0.5 h
Procedure: As a result, the pH was adjusted to 1.2 with concentrated hydrochloric acid in both solutions. Both sample preparations were diluted 500 times with the sample diluent (acetonitrile:water 1:1 v/v).

Solubility HCI/KCI Buffer 0.5 M pH 1.2 [1]: <15 mM
Compound: CC1(C)C2CCC1(CS(=O)(=O)O)C(=O)C2 (stereo not shown)

stability in Syrspend SF Alka (in words) ([2]; 90 minutes): stable | Total Impurities (% Area) Initial ([2]; dose strength 15 mg): 0.89* % Area | Total Impurities (% Area) T = 30 min ([2]; dose strength 15 mg): 0.94* % Area | Total Impurities (% Area) T = 60 min ([2]; dose strength 15 mg): 0.88* % Area | Total Impurities (% Area) T = 90 min ([2]; dose strength 15 mg): 0.87* % Area | Total Impurities (% Area) Initial ([2]; dose strength 400 mg): 0.45 % Area | Total Impurities (% Area) T = 30 min ([2]; dose strength 400 mg): 0.45 % Area | Total Impurities (% Area) T = 60 min ([2]; dose strength 400 mg): 0.45 % Area | Total Impurities (% Area) T = 90 min ([2]; dose strength 400 mg): 0.45 % Area | AP1189 degradation in Ora-Sweet SF, Initial [3]: <LOQ | degradation at low pH [5]: at least 20%
Compound: NC(N)=N/N=C/C=C/c1cccn1-c1ccccc1[N+](=O)[O-] [AP1189, (E)-N-[1-(2-nitrophenyl)-1-H-pyrrole-2-yl-allylideneamino]-guanidine]
ERK1/2 phosphorylation (MC3R): cause ERK1/2 phosphorylation | canonical cAMP generation (MC3R): does not induce canonical cAMP generation | characterisation at MC3R (MC3R): biased agonist | melanogenesis in melanocytes (melanocytes): no melanogenesis was induced | ERK1/2 phosphorylation (MC1R): cause ERK1/2 phosphorylation | canonical cAMP generation (MC1R): does not induce canonical cAMP generation | characterisation at MC1R (MC1R): biased agonist | actions in peritonitis (peritonitis): elicit anti-inflammatory actions | macroscopic and histological parameters of joint disruption [4]: significantly reduce | cytokine release in macrophages (primary macrophages): reduce cytokine release | efferocytosis in primary macrophages (primary macrophages): proefferocytic effect

Determined concentration in pH 1.2 samples ([6]; acetate 5 h): >223 mg/mL | Determined concentration in pH 1.2 samples ([6]; time in cell: acetate 5 h): >617 mM (5 h)
Compound: (E)-N-[1-(2-nitrophenyl)-1-H-pyrrole-2-yl-allylideneamino]-guanidinium acetate [AP1189 acetate]
